Experimental findings from ChEMBL document CHEMBL3217489, “Minisci reactions: Versatile CH-functionalizations for medicinal chemists” (Medchemcomm, 2011) are described below.

As usually defined, the Ki is a measure of affinity in units of concentration, obtained from inhibition or displacement. Low values mean tighter binding, high ones weaker binding. By IC50 is commonly meant the concentration at which inhibition is half-maximal. The low end stands for inhibition by little substance, the high end for a need for much substance.

One test addresses T1, Adenosine deaminase (Bos taurus, UniProt P56658).
T1 sequence (P56658 whole entry): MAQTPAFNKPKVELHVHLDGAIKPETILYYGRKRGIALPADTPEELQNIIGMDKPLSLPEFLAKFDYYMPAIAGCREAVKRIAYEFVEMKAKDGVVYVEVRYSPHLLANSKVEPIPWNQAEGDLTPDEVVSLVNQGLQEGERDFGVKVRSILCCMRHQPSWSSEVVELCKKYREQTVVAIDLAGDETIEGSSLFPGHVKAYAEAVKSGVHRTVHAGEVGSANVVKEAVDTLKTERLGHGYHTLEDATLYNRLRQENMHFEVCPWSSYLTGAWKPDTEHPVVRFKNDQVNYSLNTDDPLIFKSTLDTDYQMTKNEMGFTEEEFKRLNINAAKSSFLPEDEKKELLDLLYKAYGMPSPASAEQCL
Briefly: Inhibition of calf duodenum adenosine deaminase.

Test [1] addresses T2, Steroid 17-alpha-hydroxylase/17,20 lyase (Homo sapiens, UniProt P05093).
T2 sequence (P05093 whole entry): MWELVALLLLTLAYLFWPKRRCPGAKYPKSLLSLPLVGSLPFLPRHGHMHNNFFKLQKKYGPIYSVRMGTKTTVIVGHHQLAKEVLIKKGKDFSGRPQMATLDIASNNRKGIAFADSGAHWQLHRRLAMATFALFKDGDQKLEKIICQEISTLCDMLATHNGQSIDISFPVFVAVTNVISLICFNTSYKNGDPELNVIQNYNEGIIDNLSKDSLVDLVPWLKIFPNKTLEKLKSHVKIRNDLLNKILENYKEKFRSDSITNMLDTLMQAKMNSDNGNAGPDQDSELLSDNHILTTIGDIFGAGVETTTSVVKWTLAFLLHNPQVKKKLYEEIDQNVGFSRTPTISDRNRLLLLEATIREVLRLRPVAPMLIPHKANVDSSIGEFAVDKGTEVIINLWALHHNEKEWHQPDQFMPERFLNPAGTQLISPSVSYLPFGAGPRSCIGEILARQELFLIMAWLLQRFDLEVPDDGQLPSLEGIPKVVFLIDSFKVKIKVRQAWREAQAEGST
Briefly: Reversible inhibition of human cytochrome P450 17alpha.

The target in test [2] is Neuronal acetylcholine receptor; alpha4/beta2 (Homo sapiens, UniProt P17787+P43681). As to the kind of experiment: Inhibition of alpha4beta2 nAChR (unknown origin). In kind it is protein-complex assay.
Test [3] has as its target T2, Steroid 17-alpha-hydroxylase/17,20 lyase. Briefly: Irreversible inhibition of human cytochrome P450 17alpha.

Neuronal acetylcholine receptor; alpha4/beta2, sequence (P17787 whole entry): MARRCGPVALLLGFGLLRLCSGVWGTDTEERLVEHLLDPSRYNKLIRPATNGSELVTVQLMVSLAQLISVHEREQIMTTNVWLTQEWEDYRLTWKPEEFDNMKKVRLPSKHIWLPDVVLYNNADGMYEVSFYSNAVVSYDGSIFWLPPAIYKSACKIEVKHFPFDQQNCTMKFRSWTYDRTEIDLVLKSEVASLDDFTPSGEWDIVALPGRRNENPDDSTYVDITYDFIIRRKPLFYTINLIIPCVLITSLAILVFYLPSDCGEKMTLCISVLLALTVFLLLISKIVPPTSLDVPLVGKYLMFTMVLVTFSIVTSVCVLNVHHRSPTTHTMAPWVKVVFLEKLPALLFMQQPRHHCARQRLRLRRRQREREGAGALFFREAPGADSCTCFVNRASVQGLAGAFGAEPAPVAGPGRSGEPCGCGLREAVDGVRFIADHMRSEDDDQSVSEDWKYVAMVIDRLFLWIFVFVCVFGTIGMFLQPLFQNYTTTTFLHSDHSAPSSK
Neuronal acetylcholine receptor; alpha4/beta2, sequence (P43681 whole entry): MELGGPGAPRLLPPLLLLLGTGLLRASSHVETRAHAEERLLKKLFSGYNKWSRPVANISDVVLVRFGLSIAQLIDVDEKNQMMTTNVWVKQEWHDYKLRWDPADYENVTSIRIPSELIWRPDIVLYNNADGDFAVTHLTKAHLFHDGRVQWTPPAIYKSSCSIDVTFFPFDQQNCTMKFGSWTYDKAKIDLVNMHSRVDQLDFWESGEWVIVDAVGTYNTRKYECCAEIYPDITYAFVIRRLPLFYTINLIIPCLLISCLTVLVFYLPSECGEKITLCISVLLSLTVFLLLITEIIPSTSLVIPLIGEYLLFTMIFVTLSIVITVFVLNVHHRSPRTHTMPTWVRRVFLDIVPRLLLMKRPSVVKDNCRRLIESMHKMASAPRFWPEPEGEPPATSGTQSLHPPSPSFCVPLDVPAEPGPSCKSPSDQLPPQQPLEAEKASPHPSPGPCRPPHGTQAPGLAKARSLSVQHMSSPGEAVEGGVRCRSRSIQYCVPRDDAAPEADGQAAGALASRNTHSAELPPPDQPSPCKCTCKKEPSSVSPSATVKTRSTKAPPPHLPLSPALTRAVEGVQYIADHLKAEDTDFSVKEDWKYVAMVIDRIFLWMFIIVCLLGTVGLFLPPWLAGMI

In turn, `OCc1ncnc2c1ncn2[C@@H]1O[C@H](CO)[C@@H](O)[C@H]1O` came in with a Ki at Adenosine deaminase of 9400 nM.
Turning to `C[C@]12CC[C@H]3[C@@H](CC=C4C[C@@H](O)CC[C@@]43C)[C@@H]1CC[C@H]2c1ccncc1`, the IC50 in test [1] came out at 27 nM.
`Clc1ccc2c(n1)CC1CNCC2C1` (racemic) came in with a Ki in test [2] of 3.5 nM.
In test [2], `Clc1cc2c(cn1)C1CNCC(C2)C1` (racemic) returned a Ki of 0.5 nM.
At Adenosine deaminase, `OCC1NC=Nc2c1ncn2[C@@H]1O[C@H](CO)[C@@H](O)[C@H]1O` (single isomer, unassigned; diastereomer 1) showed a Ki of 760 nM.
Turning to `OCC1NC=Nc2c1ncn2[C@@H]1O[C@H](CO)[C@@H](O)[C@H]1O` (single isomer, unassigned; diastereomer 2), on Adenosine deaminase, the Ki worked out at 12500 nM.
For the compound `C[C@]12CC[C@H](O)CC1=CC[C@@H]1[C@@H]2CC[C@]2(C)C(c3cccnc3)=CC[C@@H]12` [ABIRATERONE], 5 nM corresponded to half-maximal inhibition in test [3] (IC50).
At Adenosine deaminase, `OC[C@H]1O[C@@H](n2cnc3cncnc32)[C@H](O)[C@@H]1O` [NEBULARINE] returned a Ki of 9300 nM.
